The values that follow are results of earlier work, collected in US11236258B2, “Aqueous based dust control compositions and methods” (Trican Well Service Ltd, priority 2018, dated 2022).

For data set [1] the following is noted: within 14 days.

For the compound `C[N+](C)(C)CCOP(=O)(O)OCC(O)CO` (stereo not shown) [GPC, glycerophosphocholine], the solubility in water was 4040 µg/mL.

In the case of `C[N+](C)(C)CCO.[Cl-]` [Choline chloride, choline chloride], the “measured solubility in water” value is 650000 µg/mL. Also, in data set [1], the “biodegradation, degradation” value is 93%.

As to `C[N+](C)(C)CCO` [CHO, choline], the solubility in water was 3610 µg/mL.
